Literature values as cited in patent publication US7166468B2, “Production of the lantibiotic cinnamycin with genes isolated from Streptomyces cinnamoneus” (Plant Bioscience Limited, priority 2001, dated 2007).
Ends that are not written are not given here.

Tested on: B. subtilis
Conditions: stated as known activity

In the case of “cinnamycin (CRQSCSFGPFTFVCDGNTK; thioether (positions not given here); not fully specified (bridges); also: lanthionine bridges, positions not given here)”, the “Known activity of cinnamycin: inhibition of the growth of B. subtilis strains” value is given as “inhibition of the growth of the B. subtilis strains”.
